{"source": "paper PMC9851200", "about": "“Multiparameter phenotypic screening for endogenous TFEB and TFE3 translocation identifies novel chemical series modulating lysosome function” (Autophagy, 2022)", "assay_in_all_cases": "biochemical", "type_in_all_cases": "binding", "key": {"[1]": {"molecular_target": "cellular kinases of SH-SY5Y cells (Homo sapiens, UniProt O14757)", "sequence (O14757 whole entry)": "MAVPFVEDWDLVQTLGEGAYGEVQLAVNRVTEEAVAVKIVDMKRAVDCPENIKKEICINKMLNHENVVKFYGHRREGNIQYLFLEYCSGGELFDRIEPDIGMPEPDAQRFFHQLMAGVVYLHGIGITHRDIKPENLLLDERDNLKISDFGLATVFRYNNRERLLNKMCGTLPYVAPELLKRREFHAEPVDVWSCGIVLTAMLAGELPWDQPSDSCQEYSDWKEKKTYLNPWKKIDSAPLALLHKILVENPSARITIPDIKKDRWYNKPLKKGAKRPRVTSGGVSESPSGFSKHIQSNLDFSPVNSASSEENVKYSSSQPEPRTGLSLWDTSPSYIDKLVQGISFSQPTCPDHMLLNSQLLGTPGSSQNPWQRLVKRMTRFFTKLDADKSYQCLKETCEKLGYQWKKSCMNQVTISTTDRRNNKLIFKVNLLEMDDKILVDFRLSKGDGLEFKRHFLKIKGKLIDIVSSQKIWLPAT", "details": "2µM; SH-SY5Y cells; Labeling Site Lys2; DIKPENLLLDER; read-out: KiNativ in-cell binding, % Inhibition, CHEK1/CHK1", "excerpt": "(§1) As KINOMEscan is an in vitro assay, and as different cell types have variable kinase expression profiles we sought to determine the kinase binding profile in our SH-SY5Y TFEB-relocalization cell model. […] Bound kinases were pulled down and analyzed by mass spectrometry to determine the in situ kinase binding profile for each compound."}, "[2]": {"molecular_target": "cellular kinases of SH-SY5Y cells (Homo sapiens, UniProt P24941)", "details": "2µM, SH-SY5Y cells", "excerpt": "as §1"}, "[3]": {"molecular_target": "cellular kinases of SH-SY5Y cells (Homo sapiens, UniProt P27448)", "details": "2µM; SH-SY5Y cells; Labeling Site Lys1; EVAIKIIDKTQLNPTSLQK; read-out: KiNativ in-cell binding, % Inhibition, MARK3", "excerpt": "as §1"}, "[4]": {"molecular_target": "cellular kinases of SH-SY5Y cells (Homo sapiens, UniProt P41743)", "details": "2µM; SH-SY5Y cells; Labeling Site Lys1; IYAMKVVK; read-out: KiNativ in-cell binding, % Inhibition, PRKCI/PKCi", "excerpt": "as §1"}, "[5]": {"molecular_target": "T1, cellular kinases of SH-SY5Y cells (Homo sapiens, UniProt P43403)", "T1 construct": "endogenous in cells; host or cells: SH-SY5Y", "details": "2µM; SH-SY5Y cells; Labeling Site Activation Loop; SAGKWPLK; read-out: KiNativ in-cell binding, % Inhibition, ZAP70", "excerpt": "as §1"}, "[6]": {"molecular_target": "cellular kinases of SH-SY5Y cells (Homo sapiens, UniProt P43405)", "excerpt": "as §1"}, "[7]": {"molecular_target": "T2, cellular kinases of SH-SY5Y cells (Homo sapiens, UniProt P45985)", "T2 sequence (P45985 1-399)": "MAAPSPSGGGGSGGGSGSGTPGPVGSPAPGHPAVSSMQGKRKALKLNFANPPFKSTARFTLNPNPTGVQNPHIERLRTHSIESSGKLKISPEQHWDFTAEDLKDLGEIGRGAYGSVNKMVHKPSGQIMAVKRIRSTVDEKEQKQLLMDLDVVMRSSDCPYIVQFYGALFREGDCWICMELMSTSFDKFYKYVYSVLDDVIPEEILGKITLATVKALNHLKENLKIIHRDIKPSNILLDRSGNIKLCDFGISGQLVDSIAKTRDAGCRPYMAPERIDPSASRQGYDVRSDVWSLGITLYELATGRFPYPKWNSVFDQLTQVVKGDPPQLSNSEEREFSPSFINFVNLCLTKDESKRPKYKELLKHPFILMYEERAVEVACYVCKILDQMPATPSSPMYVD", "details": "2µM, SH-SY5Y cells; for inhibition at 2 µM: read-out: KiNativ in-cell binding, % Inhibition, MAP2K4", "excerpt": "as §1"}, "[8]": {"molecular_target": "T3, cellular kinases of SH-SY5Y cells (Homo sapiens, UniProt P48426)", "T3 construct": "endogenous in cells; host or cells: SH-SY5Y", "details": "2µM; SH-SY5Y cells; Labeling Site ATP; AKELPTLKDNDFINEGQK; read-out: KiNativ in-cell binding, % Inhibition, PIP4K2A", "excerpt": "as §1"}, "[9]": {"molecular_target": "T4, cellular kinases of SH-SY5Y cells (Homo sapiens, UniProt P51957)", "T4 construct": "endogenous in cells; host or cells: SH-SY5Y", "T4 sequence (P51957 whole entry)": "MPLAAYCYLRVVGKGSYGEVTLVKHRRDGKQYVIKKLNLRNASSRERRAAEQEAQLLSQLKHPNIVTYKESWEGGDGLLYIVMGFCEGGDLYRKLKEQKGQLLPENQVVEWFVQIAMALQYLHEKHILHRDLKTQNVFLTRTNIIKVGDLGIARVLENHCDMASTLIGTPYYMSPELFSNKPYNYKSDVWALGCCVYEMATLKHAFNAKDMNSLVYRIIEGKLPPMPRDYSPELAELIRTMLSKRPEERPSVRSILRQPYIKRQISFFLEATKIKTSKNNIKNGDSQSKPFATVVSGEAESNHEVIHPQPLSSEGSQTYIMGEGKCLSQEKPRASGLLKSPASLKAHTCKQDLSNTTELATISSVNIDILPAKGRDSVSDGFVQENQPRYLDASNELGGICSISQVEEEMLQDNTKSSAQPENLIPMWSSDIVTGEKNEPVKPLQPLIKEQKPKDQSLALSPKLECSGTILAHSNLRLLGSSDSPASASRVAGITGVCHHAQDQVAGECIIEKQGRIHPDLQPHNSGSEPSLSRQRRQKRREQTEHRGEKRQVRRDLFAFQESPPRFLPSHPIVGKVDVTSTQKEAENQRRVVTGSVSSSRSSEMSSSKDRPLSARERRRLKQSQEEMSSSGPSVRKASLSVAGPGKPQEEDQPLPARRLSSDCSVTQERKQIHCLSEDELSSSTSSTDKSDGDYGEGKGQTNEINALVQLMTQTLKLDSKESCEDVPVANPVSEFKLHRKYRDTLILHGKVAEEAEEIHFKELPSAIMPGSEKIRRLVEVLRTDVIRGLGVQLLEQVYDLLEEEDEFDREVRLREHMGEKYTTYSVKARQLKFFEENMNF", "details": "2µM; SH-SY5Y cells; Labeling Site Lys2; DLKTQNVFLTR; read-out: KiNativ in-cell binding, % Inhibition, NEK4", "excerpt": "as §1"}, "[10]": {"molecular_target": "cellular kinases of SH-SY5Y cells (Homo sapiens, UniProt P54760)", "details": "2µM; SH-SY5Y cells; Labeling Site Activation Loop; FLEENSSDPTYTSSLGGKIPIR; read-out: KiNativ in-cell binding, % Inhibition, EphB4", "excerpt": "as §1"}, "[11]": {"molecular_target": "cellular kinases of SH-SY5Y cells (Homo sapiens, UniProt Q00534)", "sequence (Q00534 whole entry)": "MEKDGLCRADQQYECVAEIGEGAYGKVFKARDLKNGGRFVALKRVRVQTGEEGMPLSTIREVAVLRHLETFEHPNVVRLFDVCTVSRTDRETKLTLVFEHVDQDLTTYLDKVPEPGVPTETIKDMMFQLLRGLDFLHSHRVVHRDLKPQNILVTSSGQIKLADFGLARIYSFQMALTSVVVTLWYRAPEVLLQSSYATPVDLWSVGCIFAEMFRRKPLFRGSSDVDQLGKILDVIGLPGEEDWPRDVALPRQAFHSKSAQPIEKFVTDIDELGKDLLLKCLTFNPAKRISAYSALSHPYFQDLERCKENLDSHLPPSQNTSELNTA", "details": "2µM; SH-SY5Y cells; labeling site Lys2; peptide DLKPQNILVTSSGQIK", "excerpt": "as §1"}, "[12]": {"molecular_target": "cellular kinases of SH-SY5Y cells (Homo sapiens, UniProt Q7KZI7)", "sequence (Q7KZI7 whole entry)": "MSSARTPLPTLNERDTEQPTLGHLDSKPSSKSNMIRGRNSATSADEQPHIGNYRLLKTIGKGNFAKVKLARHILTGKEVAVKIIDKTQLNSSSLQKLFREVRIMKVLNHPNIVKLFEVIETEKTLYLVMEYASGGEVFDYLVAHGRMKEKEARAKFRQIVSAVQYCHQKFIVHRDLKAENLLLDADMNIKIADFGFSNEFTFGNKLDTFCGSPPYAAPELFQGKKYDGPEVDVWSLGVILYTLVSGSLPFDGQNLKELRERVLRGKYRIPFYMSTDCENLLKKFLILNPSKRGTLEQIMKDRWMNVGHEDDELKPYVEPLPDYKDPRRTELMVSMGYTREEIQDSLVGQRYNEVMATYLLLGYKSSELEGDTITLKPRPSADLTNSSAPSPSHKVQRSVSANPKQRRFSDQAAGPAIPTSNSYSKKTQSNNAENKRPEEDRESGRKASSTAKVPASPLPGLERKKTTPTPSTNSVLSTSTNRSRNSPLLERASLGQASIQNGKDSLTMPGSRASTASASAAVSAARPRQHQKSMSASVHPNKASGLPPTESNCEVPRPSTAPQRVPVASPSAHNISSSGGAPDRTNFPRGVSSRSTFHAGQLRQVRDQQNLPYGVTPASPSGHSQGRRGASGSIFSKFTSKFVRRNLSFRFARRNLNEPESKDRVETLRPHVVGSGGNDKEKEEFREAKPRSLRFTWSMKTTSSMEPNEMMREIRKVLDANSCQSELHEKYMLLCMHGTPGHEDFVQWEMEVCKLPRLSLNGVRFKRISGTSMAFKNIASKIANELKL", "details": "2µM; SH-SY5Y cells; Labeling Site Lys1; EVAVKIIDKTQLNSSSLQK; read-out: KiNativ in-cell binding, % Inhibition, MARK2", "excerpt": "as §1"}, "[13]": {"molecular_target": "cellular kinases of SH-SY5Y cells (Homo sapiens, UniProt Q8TBX8)", "sequence (Q8TBX8 whole entry)": "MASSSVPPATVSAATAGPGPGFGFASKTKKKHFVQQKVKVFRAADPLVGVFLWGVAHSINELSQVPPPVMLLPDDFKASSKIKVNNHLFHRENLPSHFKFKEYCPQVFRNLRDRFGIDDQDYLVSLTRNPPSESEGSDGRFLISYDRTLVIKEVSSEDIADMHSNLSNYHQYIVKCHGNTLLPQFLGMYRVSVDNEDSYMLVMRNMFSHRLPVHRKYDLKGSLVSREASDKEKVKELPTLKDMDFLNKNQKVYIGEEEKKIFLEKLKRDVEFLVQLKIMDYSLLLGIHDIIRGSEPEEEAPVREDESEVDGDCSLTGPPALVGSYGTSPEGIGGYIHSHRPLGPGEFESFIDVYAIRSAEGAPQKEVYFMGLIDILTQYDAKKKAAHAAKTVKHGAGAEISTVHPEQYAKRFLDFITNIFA", "details": "2µM, SH-SY5Y cells, Labeling Site ATP, read-out: KiNativ in-cell binding, % Inhibition, PIP4K2C", "excerpt": "as §1"}, "[14]": {"molecular_target": "T5, cellular kinases of SH-SY5Y cells (Homo sapiens, UniProt Q96GX5)", "T5 construct": "endogenous in cells; host or cells: SH-SY5Y", "T5 sequence (Q96GX5 whole entry)": "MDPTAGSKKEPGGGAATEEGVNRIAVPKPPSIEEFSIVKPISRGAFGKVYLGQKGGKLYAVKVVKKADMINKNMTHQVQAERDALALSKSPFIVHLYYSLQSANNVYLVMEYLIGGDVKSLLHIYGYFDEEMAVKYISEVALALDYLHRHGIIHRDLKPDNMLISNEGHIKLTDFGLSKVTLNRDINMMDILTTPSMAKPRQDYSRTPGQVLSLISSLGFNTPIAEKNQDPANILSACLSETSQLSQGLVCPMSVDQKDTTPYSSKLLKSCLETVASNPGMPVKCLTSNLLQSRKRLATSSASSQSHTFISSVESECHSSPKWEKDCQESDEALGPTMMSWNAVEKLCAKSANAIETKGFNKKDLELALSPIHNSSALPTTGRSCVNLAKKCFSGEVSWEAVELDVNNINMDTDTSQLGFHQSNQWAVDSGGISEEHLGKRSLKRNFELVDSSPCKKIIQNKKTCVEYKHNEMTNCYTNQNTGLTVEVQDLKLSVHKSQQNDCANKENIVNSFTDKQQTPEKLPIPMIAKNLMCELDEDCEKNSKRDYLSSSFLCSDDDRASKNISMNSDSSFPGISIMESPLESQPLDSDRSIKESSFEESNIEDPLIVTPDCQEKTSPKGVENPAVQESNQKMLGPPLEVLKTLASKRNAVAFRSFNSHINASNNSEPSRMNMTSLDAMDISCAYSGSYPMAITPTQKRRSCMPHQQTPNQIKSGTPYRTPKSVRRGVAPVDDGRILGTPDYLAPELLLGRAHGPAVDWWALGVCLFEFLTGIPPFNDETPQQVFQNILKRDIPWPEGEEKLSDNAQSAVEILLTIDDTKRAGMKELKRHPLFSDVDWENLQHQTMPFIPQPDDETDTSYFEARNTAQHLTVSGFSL", "details": "2µM, SH-SY5Y cells, read-out: KiNativ in-cell binding, % Inhibition, MASTL", "excerpt": "as §1"}, "[15]": {"molecular_target": "T6, cellular kinases of SH-SY5Y cells (Homo sapiens, UniProt Q9NRH2)", "T6 construct": "endogenous in cells; host or cells: SH-SY5Y", "T6 sequence (Q9NRH2 whole entry)": "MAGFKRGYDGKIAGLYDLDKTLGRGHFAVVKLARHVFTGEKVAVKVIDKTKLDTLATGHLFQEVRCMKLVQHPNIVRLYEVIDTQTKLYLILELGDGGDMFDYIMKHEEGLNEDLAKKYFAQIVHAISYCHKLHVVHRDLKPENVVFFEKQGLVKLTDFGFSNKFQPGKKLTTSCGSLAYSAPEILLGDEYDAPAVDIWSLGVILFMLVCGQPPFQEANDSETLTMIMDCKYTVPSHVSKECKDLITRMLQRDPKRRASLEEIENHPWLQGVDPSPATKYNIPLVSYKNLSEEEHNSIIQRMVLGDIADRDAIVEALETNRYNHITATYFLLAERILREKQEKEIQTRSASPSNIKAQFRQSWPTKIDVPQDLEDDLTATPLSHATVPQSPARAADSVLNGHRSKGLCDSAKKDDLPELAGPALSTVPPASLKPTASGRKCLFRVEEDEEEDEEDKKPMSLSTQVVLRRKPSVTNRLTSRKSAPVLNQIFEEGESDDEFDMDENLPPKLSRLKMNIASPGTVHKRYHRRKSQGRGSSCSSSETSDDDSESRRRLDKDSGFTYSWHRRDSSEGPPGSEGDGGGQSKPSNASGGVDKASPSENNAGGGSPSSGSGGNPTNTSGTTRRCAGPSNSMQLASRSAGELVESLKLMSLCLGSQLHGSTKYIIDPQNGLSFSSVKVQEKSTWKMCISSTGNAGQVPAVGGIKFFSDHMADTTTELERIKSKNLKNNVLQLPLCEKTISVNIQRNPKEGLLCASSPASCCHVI", "details": "2µM, SH-SY5Y cells, read-out: KiNativ in-cell binding, % Inhibition, SNRK", "excerpt": "as §1"}, "[16]": {"molecular_target": "cellular kinases of SH-SY5Y cells (Homo sapiens, UniProt Q9Y2U5)", "details": "2µM; SH-SY5Y cells; Labeling Site Lys1; ELAVKQVQFDPDSPETSKEVNALECEIQLLK; read-out: KiNativ in-cell binding, % Inhibition, MAP3K2", "excerpt": "as §1"}, "[17]": {"molecular_target": "cellular kinases of SH-SY5Y cells (Homo sapiens, UniProt Q9Y6M4)", "sequence (Q9Y6M4 whole entry)": "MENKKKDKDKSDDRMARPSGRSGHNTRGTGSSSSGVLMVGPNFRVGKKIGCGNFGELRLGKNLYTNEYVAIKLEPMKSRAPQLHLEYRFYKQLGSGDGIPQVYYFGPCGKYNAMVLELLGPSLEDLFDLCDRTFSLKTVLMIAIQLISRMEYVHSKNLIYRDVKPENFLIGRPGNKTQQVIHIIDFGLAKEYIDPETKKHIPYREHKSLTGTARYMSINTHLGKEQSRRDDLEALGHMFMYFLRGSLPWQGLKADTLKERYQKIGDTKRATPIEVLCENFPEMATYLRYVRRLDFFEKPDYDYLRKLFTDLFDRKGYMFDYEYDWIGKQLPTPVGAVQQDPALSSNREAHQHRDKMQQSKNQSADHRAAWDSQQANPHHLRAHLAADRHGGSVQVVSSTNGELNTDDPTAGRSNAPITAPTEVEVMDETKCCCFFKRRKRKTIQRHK", "details": "2µM; SH-SY5Y cells; Labeling Site Lys2; DVKPENFLIGRPGNK; read-out: KiNativ in-cell binding, % Inhibition, CSNK1G3", "excerpt": "as §1"}}, "note": "Like-named read-outs stand apart in the source and are kept apart here."}
{"smiles": "Cc1cccc(-c2nc(Nc3ccc4ncsc4c3)c3ccccc3n2)n1", "note": "[NK140]", "values": [{"measurement": "inhibition at 2 µM", "setting": "[1]", "result": 16, "unit": "%"}, {"measurement": "inhibition at 2 µM", "setting": "[2]; Labeling Site Lys1, LTGEVVALKK, read-out: KiNativ in-cell binding, % Inhibition, CDK2", "result": 21.6, "unit": "%"}, {"measurement": "KiNativ in-cell binding, CDK2", "setting": "[2]; labeling site Lys2, peptide DLKPQNLLINTEGAIK", "result": 6.0}, {"measurement": "inhibition at 2 µM", "setting": "[3]", "result": 18.5, "unit": "%"}, {"measurement": "inhibition at 2 µM", "setting": "[4]", "result": -1.3, "unit": "%"}, {"measurement": "inhibition at 2 µM", "setting": "[5]", "result": -3, "unit": "%"}, {"measurement": "KiNativ in-cell binding, SYK", "setting": "[6]", "result": -121.1}, {"measurement": "inhibition at 2 µM", "setting": "[6]; 2µM, SH-SY5Y cells, Labeling Site Activation Loop, AQTHGKWPVK, read-out: KiNativ in-cell binding, % Inhibition, SYK", "result": 0.443, "unit": "%"}, {"measurement": "KiNativ in-cell binding, SYK", "setting": "[6]; 2µM, SH-SY5Y cells, labeling site Activation Loop, peptide ISDFGLSKALR", "result": -15.0}, {"measurement": "inhibition at 2 µM", "setting": "[7]; Labeling Site Activation Loop, LCDFGISGQLVDSIAKTR", "result": -2.3, "unit": "%"}, {"measurement": "inhibition at 2 µM", "setting": "[7]; Labeling Site Lys2, DIKPSNILLDR", "result": 4, "unit": "%"}, {"measurement": "KiNativ in-cell binding, MAP2K4", "setting": "[7]; labeling site Lys1, peptide MVHKPSGQIMAVKR", "result": 26.1}, {"measurement": "inhibition at 2 µM", "setting": "[8]", "result": 29.7, "unit": "%"}, {"measurement": "inhibition at 2 µM", "setting": "[9]", "result": -36, "unit": "%"}, {"measurement": "inhibition at 2 µM", "setting": "[10]", "result": -33.5, "unit": "%"}, {"measurement": "KiNativ in-cell binding, CDK6", "setting": "[11]", "result": -30.7}, {"measurement": "inhibition at 2 µM", "setting": "[12]", "result": 10.5, "unit": "%"}, {"measurement": "inhibition at 2 µM", "setting": "[13]; TLVIKEVSSEDIADMHSNLSNYHQYIVK", "result": -7, "unit": "%"}, {"measurement": "inhibition at 2 µM", "setting": "[13]; VKELPTLKDMDFLNK", "result": 7.2, "unit": "%"}, {"measurement": "inhibition at 2 µM", "setting": "[14]; Labeling Site ATP Loop, GAFGKVYLGQK", "result": 4.2, "unit": "%"}, {"measurement": "inhibition at 2 µM", "setting": "[14]; Labeling Site Lys1, LYAVKVVK", "result": -7.7, "unit": "%"}, {"measurement": "inhibition at 2 µM", "setting": "[15]; Labeling Site Lys1, VAVKVIDK", "result": 37.3, "unit": "%"}, {"measurement": "inhibition at 2 µM", "setting": "[15]; Labeling Site Lys2, DLKPENVVFFEK", "result": 36.3, "unit": "%"}, {"measurement": "inhibition at 2 µM", "setting": "[16]", "result": -2, "unit": "%"}, {"measurement": "inhibition at 2 µM", "setting": "[17]", "result": -29, "unit": "%"}]}
